Test results as given in PMC11867202, “Phosphonoalamides Reveal the Biosynthetic Origin of Phosphonoalanine Natural Products and a Convergent Pathway for Their Diversification” (Angewandte Chemie (International ed. in English), 2024).
Like-named read-outs stand apart in the source and are kept apart here.

Columns and labels:
[1] = tested on: PnaA; conditions: read-out: Km (apparent); co-substrate oxaloacetate; PLP
[2] = tested on: T1, PnaD; assay: coupled spectrophotometric assay, NADH oxidation; PnaD with PnaA; assay type: biochemical, Streptomyces sp. NRRL S-515; conditions: two-enzyme system, 5:1 PnaD to PnaA; co-substrate L-Asp; read-out: Km (apparent)
T1 construct: recombinant, purified from E. coli; assayed coupled to PnaA
Excerpt: coupled spectrophotometric assay, NADH oxidation; PnaD with PnaA on PnaD | apparent steady state parameters for the conversion of PEP to L-PnAla in reactions with PnaD

[3] = tested on: T2, PnaA; assay: coupled spectrophotometric assay, NADH oxidation via PnPy reductase VlpB; assay type: biochemical, Streptomyces sp. NRRL S-515; conditions: reverse reaction; co-substrate oxaloacetate; PLP; varied substrate not explicitly named in main text; read-out: Km (apparent)
T2 construct: recombinant, purified from E. coli; PLP-dependent
Excerpt: coupled spectrophotometric assay, NADH oxidation via PnPy reductase VlpB on PnaA | the reverse reaction (transamination of PnAla and OAA to PnPy and Asp)

[4] = tested on: T2, PnaA; assay: coupled spectrophotometric assay, NADH oxidation via malate dehydrogenase; assay type: biochemical, Streptomyces sp. NRRL S-515; conditions: co-substrate L-Asp; PLP; read-out: Km (apparent)

Question: N[C@@H](CCC(=O)O)C(=O)O [Glu] was tested. Which Km [1] did it give?
Answer: 7500 ± 700 µM

Question: How did the Km [2] turn out when C=C(OP(=O)(O)O)C(=O)O [PEP] was run?
Answer: 546 ± 60 µM

Question: With N[C@@H](CP(=O)(O)O)C(=O)O [PnAla] as the compound, how does the Km [3] read?
Answer: 327 ± 40 µM

Question: O=C(O)C(=O)CP(=O)(O)O [PnPy] was tested. Which Km [4] did it give?
Answer: 4.8 ± 0.4 µM

Question: O=C(O)CCC(=O)C(=O)O [αKG] was tested. Which Km [4] did it give?
Answer: 899 ± 97 µM
